Values quoted from earlier work in US20050020601A1, “Novel pyrazinones as CRF1 receptor antagonists” (Pfizer Inc, priority 2003, published 2005).

Columns and labels:
[1] = tested on: cultured human epidermal keratinocyte cells
rats = conditions: for effect on the "anxiogenic" effects/actions of CRF: conflict test

Structure (SMILES) | keratinocyte cell proliferation [1] | effect on the "anxiogenic" effects/actions of CRF (rats) | behavioral activity alone (rats; operant conflict test, compound alone)
CCN(c1nc(C)cc(N2CC=C(c3cccc(F)c3)CC2)n1)c1ccc(C(C)C)cc1SC [2-[N-(2-methylthio-4-isopropylphenyl)-N-ethylamino]-4-[4-(3-fluorophenyl)-1,2,3,6-tetrahydropyridine-1-yl]-6-methylpyrimidine] | keratinocyte cell proliferation promoting effect |  | 
CNC(=O)c1cc2c(cn1)[nH]c1ccccc12 [FG 7142] |  | enhanced the actions of CRF | 
CCOC(=O)c1ncn2c1CN(C)C(=O)c1cc(F)ccc1-2 [Ro 15-1788] |  | reversed the effects of CRF in a dose-dependent manner | without behavioral activity alone
